Test results taken from patent US6576437B2, “Stimulus-inducible protein kinase complex and methods of use therefor” (Signal Pharmaceuticals, Inc., priority 1996, dated 2003).
“Also recorded” adds a separate entry of the source. Square brackets hold non-standard residues; d marks the D form. Ends that are not written are not given here. Peptide text beside a SMILES is read from it. pS = N[C@@H](COP(=O)(O)O)C(=O)O

What was measured:
IKK signalsome [1] = molecular target: T1, IKK signalsome (Homo sapiens, UniProt O14920+O15111); experiment: Inhibition of immunopurified IKK signalsome activity (32P incorporation into GST-IκBα(1-54)); format: biochemical; details: GST-IκBα(1-54) 0.56 μM, ATP 3 μM; for inhibition of IKK signalsome kinase (phosphorylation of GST-IκBα (1-54)): one hour at room temperature
T1 construct: endogenous in cells; host or cells: HeLa / HeLa S3 cells stimulated with TNFα; anti-MKP-1 immunoprecipitate
T1 sequence (O15111 whole entry): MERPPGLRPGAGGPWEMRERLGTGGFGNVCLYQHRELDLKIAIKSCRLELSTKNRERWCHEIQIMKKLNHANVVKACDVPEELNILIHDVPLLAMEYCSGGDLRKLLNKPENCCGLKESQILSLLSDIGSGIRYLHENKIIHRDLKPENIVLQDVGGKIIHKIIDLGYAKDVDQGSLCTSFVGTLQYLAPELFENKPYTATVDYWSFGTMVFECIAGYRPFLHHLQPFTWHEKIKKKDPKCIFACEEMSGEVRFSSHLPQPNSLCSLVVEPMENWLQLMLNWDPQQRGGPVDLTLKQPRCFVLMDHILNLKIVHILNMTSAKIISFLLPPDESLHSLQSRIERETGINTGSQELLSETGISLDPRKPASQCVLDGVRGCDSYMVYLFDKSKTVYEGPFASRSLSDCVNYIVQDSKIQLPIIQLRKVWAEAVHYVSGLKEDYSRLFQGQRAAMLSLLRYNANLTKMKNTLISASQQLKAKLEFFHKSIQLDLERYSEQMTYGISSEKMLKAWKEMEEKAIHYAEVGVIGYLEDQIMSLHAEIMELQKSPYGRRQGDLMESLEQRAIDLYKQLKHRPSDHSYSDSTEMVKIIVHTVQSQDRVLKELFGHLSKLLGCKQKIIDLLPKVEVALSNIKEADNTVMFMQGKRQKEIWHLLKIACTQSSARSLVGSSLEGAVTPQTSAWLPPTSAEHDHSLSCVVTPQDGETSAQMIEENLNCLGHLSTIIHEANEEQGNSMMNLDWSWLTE
T1 sequence (O14920 whole entry): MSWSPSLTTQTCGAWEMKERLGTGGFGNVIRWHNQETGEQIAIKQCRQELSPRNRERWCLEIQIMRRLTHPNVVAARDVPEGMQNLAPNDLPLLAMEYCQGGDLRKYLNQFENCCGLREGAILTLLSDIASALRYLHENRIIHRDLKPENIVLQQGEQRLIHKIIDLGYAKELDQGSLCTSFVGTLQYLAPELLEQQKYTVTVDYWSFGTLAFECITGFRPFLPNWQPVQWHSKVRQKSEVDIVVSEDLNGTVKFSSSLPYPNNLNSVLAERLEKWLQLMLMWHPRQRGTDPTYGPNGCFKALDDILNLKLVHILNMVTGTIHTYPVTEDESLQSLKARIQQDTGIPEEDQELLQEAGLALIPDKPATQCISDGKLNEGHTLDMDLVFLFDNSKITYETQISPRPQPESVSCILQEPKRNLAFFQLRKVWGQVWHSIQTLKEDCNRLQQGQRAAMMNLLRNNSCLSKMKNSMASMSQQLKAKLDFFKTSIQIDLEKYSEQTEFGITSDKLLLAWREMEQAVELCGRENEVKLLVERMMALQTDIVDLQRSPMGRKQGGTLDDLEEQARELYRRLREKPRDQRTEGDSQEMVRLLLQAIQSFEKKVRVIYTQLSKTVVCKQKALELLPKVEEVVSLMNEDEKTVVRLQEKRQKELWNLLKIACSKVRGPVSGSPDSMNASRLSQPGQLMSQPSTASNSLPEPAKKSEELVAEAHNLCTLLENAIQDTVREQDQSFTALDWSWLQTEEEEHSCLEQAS
T1 sequence (Q9Y6K9 whole entry partner): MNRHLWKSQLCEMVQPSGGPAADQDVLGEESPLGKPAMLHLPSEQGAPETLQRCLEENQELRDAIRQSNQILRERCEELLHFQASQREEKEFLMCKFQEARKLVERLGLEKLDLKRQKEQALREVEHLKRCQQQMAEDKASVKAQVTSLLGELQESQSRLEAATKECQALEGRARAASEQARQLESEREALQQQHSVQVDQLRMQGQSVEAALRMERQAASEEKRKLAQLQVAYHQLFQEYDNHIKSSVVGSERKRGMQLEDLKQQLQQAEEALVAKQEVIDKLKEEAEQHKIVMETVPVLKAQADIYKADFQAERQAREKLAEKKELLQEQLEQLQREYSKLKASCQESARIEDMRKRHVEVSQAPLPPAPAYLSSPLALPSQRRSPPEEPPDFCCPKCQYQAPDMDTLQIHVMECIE
Experimental: FIG. 9B is a graph illustrating the inhibition of phosphorylation of GST-IκBα (1-54) by IκBα(21-41) peptides. […] This assay only detects precipitated ^32P-labeled proteins, not ^32P-labeled peptides. Addition of the singly- or non-phosphorylated IκBα(21-41) peptides results in less phosphorylation of GST-IκBα (1-54) and apparent inhibition.
Inhibition of immunopurified IKK signalsome activity was measured by ^32P incorporation into GST-IκBα(1-54) in a discontinuous assay using the reaction conditions described above. The concentrations of GST-IκBα(1-54) and ATP used in the inhibition studies were 0.56 μM and 3 μM, respectively. Enzymatic reactions (32 μL) were carried out in wells of a 96 well assay plate for one hour at room temperature and terminated with the addition of trichloroacetic acid (TCA) (150 μL/well of 12.5% w/v). The subsequent 20 minute incubation with TCA precipitated the proteins but not peptides from solution. The TCA precipitate was collected on 96-well glass fiber plates (Packard) and washed 10 times with approximately 0.3 mL per well of Dulbecco's phosphate buffered saline pH 7.4 (Sigma) using a Packard Filtermate 196. Scintillation fluid (0.50 mL, MicroScint, Packard) was added to each well and the plate was analyzed for ^32P using a Packard TopCount scintillation counter. Less than 10% of ATP was turned over in the course of the assay reaction, ensuring that the kinetic data represented initial rate data. The inhibition constant of the P32, 36 peptide was determined by Dixon analysis (Dixon and Webb, In Enzymes (Academic Press: New York, ed. 3, 1979), pp. 350-51.

IKK signalsome [2] = molecular target: T1, IKK signalsome; experiment: IKK signalsome activity in anti-MKP-1 immunoprecipitates from TNFα-stimulated HeLa S3 cells pretreated with inhibitor; format: cell-based; details: HeLa S3 cells pretreated 30 min with 15 μM prior to TNFα (20 ng/ml, 7 min)
Experimental: FIG. 8B illustrates the stimulus-dependent activation of IKK signalsome, which is blocked by TPCK. Anti-MKP-1 immunoprecipitates from cell extracts of HeLa S3 cells either stimulated for 7 min with TNFα (20 ng/ml, lane 2 and 6), IL-1 (10 ng/ml, lane 3), PMA (50 ng/ml, lane 4) or pretreated for 30 min with TPCK (15 μM, lane 7) prior to TNFα-induction were examined for IKK signalsome activity. GST IκBα 1-54 WT (4 μg) was used as a substrate.
For these studies, small scale immunoprecipitation were performed using two 150 mm plates of HeLa cells (one stimulated and one unstimulated). Whole cell lysates were diluted 4-fold with 2×Pull-Down Buffer (40 mM Tris pH 8.0, 500 mM NaCl, 0.1% NP-40, 6 mM EDTA, 6 mM EGTA, 10 mM β-glycerophosphate, 10 mM NaF, 10 mM PNPP, 300 μM Na3VO4, 1 mM benzamidine, 2 μM PMSF, 10 μg/ml aprotonin, 1 μg/ml leupeptin, 1 μg/ml pepstatin, 1 mM DTT) and 2-4 μg of the indicated antibody was added. Lysates were incubated on ice for 1-2 hours, 10 μl of Protein A or G beads were added, and lysates were left to incubate with gentle rotation for an additional 1 hour at 4° C. The immunoprecipitate was then washed 3 times with 2×Pull-Down Buffer, 1× with kinase buffer without ATP and subjected to a kinase assay as described in Example 2. […]

IKK signalsome [3] = molecular target: T1, IKK signalsome; experiment: Phosphorylation of synthetic peptides by the IKK signalsome (immunokinase assay); format: biochemical; details: peptide 100 μM; for phosphorylation of peptide by IKK signalsome: γ-[32P]-ATP, one hour at room temperature
Experimental: FIG. 9A is an autoradiogram depicting the results of an immunokinase assay in which peptides are phosphorylated by the IKK signalsome. In the top panel, IκBα(21-41) peptides that were unphosphorylated or chemically phosphorylated on either Ser-32 or Ser-36 were incubated with the IKK signalsome in the presence of γ-[^32P]-ATP.
Phosphorylation of these peptides (100 μM) was performed using a kinase reaction as described above. Reactions were for one hour at room temperature and were terminated by the addition of SDS-PAGE loading buffer. SDS-PAGE with a 16% Tris/tricine gel (Novex, San Diego, Calif.) or a 4-20% Tris/glycine gel (Novex, San Diego, Calif.) was used to characterize the reaction products. Gels were washed, dried in vacuo, and exposed to autoradiographic film.

[4] = tested on: RelA translocation in HeLa cells; experiment: RelA nuclear translocation in transiently transfected HeLa cells (immunofluorescence); format: cell-based, human
Experimental: HeLa cells were transiently transfected with either HA-tagged IKK-1 K44 to M mutant (14B) or Flag-tagged IKK-2 K44 to M mutant (14C) expression vectors. 36 hours post-transfection cells were either not stimulated (Unstim) or TNFα-stimulated (20 ng/ml) for 30 min (TNFα), as indicated to the right of the figure. Cells were then subjected to immunofluorescence staining using anti-HA of anti-Flag antibodies to visualize expression of IKK-1 K44 to M or IKK-2 K44 to M, respectively. Stimulus-dependent translocation of Rel A was monitored using anti-Rel A antibodies. Antibodies used are indicated to the top of the figure. IKK mutant transfected is indicated to the left of the figure.
For these studies, HeLa cells were transiently transfected with either HA-tagged IKK-1 or Flag-tagged IKK-2. Cells were fixed for 30 minutes with methanol. For immunofluorescence staining, the cells were incubated sequentially with primary antibody in PBS containing 10% donkey serum and 0.25% Triton X-100 for 2 hours followed by fluorescein-conjugated or Texas red-conjugated secondary antibody (Jackson Immunoresearch Laboratories, Inc., West Grove, Pa.; used at 1:500 dilution) for 1 hour at room temperature. The coverslips were rinsed and coverslipped with Vectashield (Vector Laboratories, Burlingame, Calif.) before scoring and photographing representative fields. […]

Molecule: CSCC[C@H](NC(=O)[C@H](COP(=O)(O)O)NC(=O)[C@H](CC(=O)O)NC(=O)[C@H](CC(C)C)NC(=O)CNC(=O)[C@H](COP(=O)(O)O)NC(=O)[C@H](CC(=O)O)NC(=O)[C@H](Cc1c[nH]cn1)NC(=O)[C@H](CCCNC(=N)N)NC(=O)[C@H](CC(=O)O)NC(=O)[C@H](CC(=O)O)NC(=O)[C@H](CC(C)C)NC(=O)[C@H](CC(C)C)NC(=O)[C@H](CCCNC(=N)N)NC(=O)[C@H](CCC(=O)O)NC(=O)[C@H](CCCCN)NC(=O)[C@H](CCCCN)NC(=O)[C@@H](N)CS)C(=O)N[C@@H](CCCCN)C(=O)N[C@@H](CC(=O)O)C(=O)N[C@@H](CCC(=O)O)C(=O)N[C@@H](CCC(=O)O)C(=O)O [IκBα(21-41) peptide P32,36] (H-CKKERLLDDRHD[pS]GLD[pS]MKDEE-OH)
- Ki (IKK signalsome [1]; Dixon analysis, read-out: Ki (product inhibition of GST-IκBα (1-54) phosphorylation)): 14 µM

Molecule: Cc1ccc(S(=O)(=O)N[C@@H](Cc2ccccc2)C(=O)CCl)cc1 [TPCK]
- IKK signalsome activity in treated cells (IKK signalsome [2]): inhibited; also recorded: blocked

Molecule: CKKERLLDDRHDSGLDSMKDEE [IκBα (21-41) peptide]
- inhibition of IKK signalsome kinase (phosphorylation of GST-IκBα (1-54)) (IKK signalsome [1]): less effective inhibitors
- phosphorylation of peptide by IKK signalsome (IKK signalsome [3]): capable of phosphorylating

Molecule: CKKERLLDDRHDTGLDTMKDEE
- phosphorylation by the signalsome, fold less well than the wild-type serine-containing peptide (IKK signalsome [3]): at least 10 fold

Molecule: CPTNSALNYLKSPITTSPS [MKP-1 peptide]
- phosphorylation of peptide by IKK signalsome (IKK signalsome [3]): did not phosphorylate

Molecule: DLTGGPEVAT(PO3)PESEEAFLP [c-Fos(222-241)]
- inhibition of IKK signalsome kinase (phosphorylation of GST-IκBα (1-54)) (IKK signalsome [1]): does not function as an inhibitor
- inhibition of IKK signalsome kinase (phosphorylation of GST-IκBα (1-54)) (IKK signalsome [1]; listed as c-Fos phosphopeptide): not
- inhibition of IKK signalsome kinase (phosphorylation of GST-IκBα (1-54)) (IKK signalsome [1]; listed as c-fos phosphopeptide): not
- phosphorylation of peptide by IKK signalsome (IKK signalsome [3]): did not function as a signalsome substrate
- phosphorylation of peptide by IKK signalsome (IKK signalsome [3]; listed as c-Fos phosphopeptide): did not phosphorylate

Molecule: singly-phosphorylated IκBα peptides: two IκBα (21-41) peptides, free serine at position 32 or 36 and phosphoserine at the other position (KKERLLDDRHDSGLDSMKDEE; not fully specified (N-terminus); also: pS at S32 or S36, free Ser at the other (two peptides); UniProt P25963 21-41, looked up, fragment)
- inhibition of IKK signalsome kinase (phosphorylation of GST-IκBα (1-54)) (IKK signalsome [1]): less effective inhibitors

B1: IKK-2 mutant: Flag-tagged kinase-inactive version (K44 to M) of IKK-2 (protein, UniProt O14920 1-756, looked up, variant K44M)
Inhibitor of nuclear factor …: MSWSPSLTTQTCGAWEMKERLGTGGFGNVIRWHNQETGEQIAIMQCRQELSPRNRERWCLEIQIMRRLTHPNVVAARDVPEGMQNLAPNDLPLLAMEYCQGGDLRKYLNQFENCCGLREGAILTLLSDIASALRYLHENRIIHRDLKPENIVLQQGEQRLIHKIIDLGYAKELDQGSLCTSFVGTLQYLAPELLEQQKYTVTVDYWSFGTLAFECITGFRPFLPNWQPVQWHSKVRQKSEVDIVVSEDLNGTVKFSSSLPYPNNLNSVLAERLEKWLQLMLMWHPRQRGTDPTYGPNGCFKALDDILNLKLVHILNMVTGTIHTYPVTEDESLQSLKARIQQDTGIPEEDQELLQEAGLALIPDKPATQCISDGKLNEGHTLDMDLVFLFDNSKITYETQISPRPQPESVSCILQEPKRNLAFFQLRKVWGQVWHSIQTLKEDCNRLQQGQRAAMMNLLRNNSCLSKMKNSMASMSQQLKAKLDFFKTSIQIDLEKYSEQTEFGITSDKLLLAWREMEQAVELCGRENEVKLLVERMMALQTDIVDLQRSPMGRKQGGTLDDLEEQARELYRRLREKPRDQRTEGDSQEMVRLLLQAIQSFEKKVRVIYTQLSKTVVCKQKALELLPKVEEVVSLMNEDEKTVVRLQEKRQKELWNLLKIACSKVRGPVSGSPDSMNASRLSQPGQLMSQPSTASNSLPEPAKKSEELVAEAHNLCTLLENAIQDTVREQDQSFTALDWSWLQTEEEEHSCLEQAS
modifications: Flag tag
- inhibition of RelA nuclear translocation ([4]; TNFα-stimulated (20 ng/ml, 30 min) HeLa cells, 36 hours post-transfection): striking and complete
- effect on subcellular localization of RelA ([4]; unstimulated HeLa cells): no effect
